# Reference: patent US20240262795A1, “PYRAZINE COMPOUNDS AS INHIBITORS OF FLT3” (Biomea Fusion, Inc., priority 2021, published 2024)
# Experiments:
# Format in all cases: cell-based, human
# MV-4-11 = test: Proliferation inhibition, CellTiter-Glo, MV-4-11; conditions: Homo sapiens, MV4-11, 96 h; MV-4:11 cells, IC50 (4 days), CellTiter-Glo; read-out: MV-4:11 IC50
# Excerpt: (§1) The proliferation inhibitory effect was investigated in human AML cell lines MOLM-13 (AddexBio: C0003003) and MV-4-11 (ATCC: CRL-9591), and CML cell line […] (ATCC: CRL-3343). Molm-13 is heterozygous for FLT3-ITD mutation, while MV4-11 is homozygous for FLT3-ITD (Quentmeier H, et al., Leukemia. 17(1):120-4). […] Cells were maintained in RPMI-1640 medium (ThermoFisher catalog no. 61870036) supplemented with 10% of Heat Inactivated FBS (ThermoFisher catalog no. A31605) and 1% Pen-Strep (ThermoFisher catalog no. 10378016) and cultured at 37° C. in a humidified incubator with 5% CO2. Cell lines were grown by […], and the cells were maintained in a range 70%-80% confluency.
# (§2) ATP is present in all metabolically active cells and is considered as a marker for cell viability and proliferation. Metabolic cell activity was determined using the CellTiter-Glo kit (Promega catalog no. G7572), an ATP monitoring system based on the production of luminescence by the reaction of ATP with added UltraGlo® recombinant luciferase (Kawano et al., 2016, PLOS One, 8; 11(7):e0158888), according to the supplier's experimental recommendations. The assay was based on a 96 well plate format.
# (§3) Test compounds were dissolved at 10 mM in DMSO (Sigma catalog no. D8418; purity≥99.9%) and stored at −20° C. Eight concentrations of test compound were assessed in duplicate in an individual test occasion in parallel in the selected cell lines. Gilteratinib and FF-10101 were used as reference compounds and tested in duplicate at eight concentrations. 100% of proliferation is represented by the untreated cells (0.2% DMSO).
# (§4) On the day of the experiment, cells were quantified with the cell viability analyzer NucleoCounter (Chemometec NC-200) and diluted with fresh medium to obtain the cell density of about 10,000 cells per 200 μL medium. 200 μL of cell suspension were added into wells in the 96 well plate.
# (§5) After 2 hours from seeding cells, compounds at desired concentrations were added using a D300e compound dispenser (Life Sciences Tecan D300) with shaking between each compound dispensed. Assay plates were incubated at 37° C. in a humidified incubator with 5% CO2.
# (§6) On day 4 (˜96 hrs after compound addition) assay plates were equilibrated at room temperature for approximately 15 min, and then 40 μL/well of the Promega CellTiterGlo® reagent was added. Contents were mixed for 5 min on an orbital shaker to promote cell lysis, and then incubated at room temperature for an additional 10 min in the dark to stabilize the luminescent signal. Luminescence was read by using a GloMlax GM300 plate reader (Promega) using the luminescence for 96 well plate standard protocol.
# (§7) Results were analyzed by GraphPad (Prism) and IC50 values were calculated by non-linear regression using four parameter-logistic equation.
# MOLM-13 = test: Proliferation inhibition, CellTiter-Glo, MOLM-13; conditions: Homo sapiens, 96 h; MOLM-13 cells, IC50 (4 days), CellTiter-Glo; read-out: MOLM-13 IC50
# Excerpt: as §1, §2, §3, §4, §5, §6, §7
# K-562 = test: Proliferation inhibition, CellTiter-Glo, K-562; conditions: Homo sapiens, K562, 96 h; K-562 cells, IC50 (4 days), CellTiter-Glo; read-out: K-562 IC50
# Excerpt: as §1, §2, §3, §4, §5, §6, §7
compound,measurement,setting,value
"[2H]C([2H])([2H])N(C/C=C/C(=O)N(C)[C@@H](C)C(=O)NCCc1cccc(Nc2nc(N(C)C(C)C)c(C)nc2C(N)=O)c1)C([2H])([2H])[2H] [Compound 247, (S,E)-3-((3-(2-(2-(4-(bis(methyl-d3)amino)-N-methylbut-2-enamido)propanamido)ethyl)phenyl)amino)-5-(isopropyl(methyl)amino)-6-methylpyrazine-2-carboxamide]",IC50,MV-4-11,< 1 nM
same,IC50,MOLM-13,1 to 10 nM
same,IC50,K-562,> 500 nM
"[2H]C([2H])([2H])N(C/C=C/C(=O)N(C)[C@@H](C)C(=O)NCCc1cccc(Nc2nc(C3CC3)c(C)nc2C(N)=O)c1)C([2H])([2H])[2H] [Compound 248, (S,E)-3-((3-(2-(2-(4-(bis(methyl-d3)amino)-N-methylbut-2-enamido)propanamido)ethyl)phenyl)amino)-5-cyclopropyl-6-methylpyrazine-2-carboxamide]",IC50,MV-4-11,1 to 10 nM
same,IC50,MOLM-13,1 to 10 nM
same,IC50,K-562,> 500 nM
"[2H]C([2H])([2H])N(C/C=C/C(=O)N(C)[C@@H](C)C(=O)NCCc1cccc(Nc2nc(N(C)C(C)C)c(CC)nc2C(N)=O)c1)C([2H])([2H])[2H] [Compound 249, (S,E)-3-((3-(2-(2-(4-(bis(methyl-d3)amino)-N-methylbut-2-enamido)propanamido)ethyl)phenyl)amino)-6-ethyl-5-(isopropyl(methyl)amino)pyrazine-2-carboxamide]",IC50,MV-4-11,< 1 nM
same,IC50,MOLM-13,< 1 nM
same,IC50,K-562,> 500 nM
"Cc1nc(Nc2cc(F)cc(CCNC(=O)CN(C)C(=O)/C=C/CN(C)C)c2)c(C(N)=O)nc1C [Compound 251, 3-[3-[2-[[2-[[(E)-4-(dimethylamino)but-2-enoyl]-methyl-amino]acetyl]amino]ethyl]-5-fluoro-anilino]-5,6-dimethyl-pyrazine-2-carboxamide]",IC50,MV-4-11,1 to 10 nM
same,IC50,MOLM-13,10 to 100 nM
same,IC50,K-562,> 500 nM
"CCc1nc(Nc2cccc(CCNC(=O)[C@H](C)N(C)C(=O)/C=C/CN(C)C)c2)c(C(N)=O)nc1C [Compound 255, 3-[3-[2-[[(2S)-2-[[(E)-4-(dimethylamino)but-2-enoyl]-methyl-amino]propanoyl]amino]ethyl]anilino]-5-ethyl-6-methyl-pyrazine-2-carboxamide]",IC50,MV-4-11,1 to 10 nM
same,IC50,MOLM-13,10 to 100 nM
same,IC50,K-562,> 500 nM
"Cc1nc(Nc2cccc(CCNC(=O)CN(C)C(=O)/C=C/CN(C)C)c2)c(C(N)=O)nc1C [Compound 301, 3-[3-[2-[[2-[[(E)-4-(dimethylamino)but-2-enoyl]-methyl-amino]acetyl]amino]ethyl]anilino]-5,6-dimethyl-pyrazine-2-carboxamide]",IC50,MV-4-11,10 to 100 nM
same,IC50,MOLM-13,10 to 100 nM
same,IC50,K-562,> 500 nM
"CCc1nc(C(N)=O)c(Nc2cc(CCNC(=O)[C@H](C)N(C)C(=O)/C=C/CN(C)C)ccn2)nc1C1CC1 [Compound 304, 5-cyclopropyl-3-[[4-[2-[[(2S)-2-[[(E)-4-(dimethylamino)but-2-enoyl]-methyl-amino]propanoyl]amino]ethyl]-2-pyridyl]amino]-6-ethyl-pyrazine-2-carboxamide]",IC50,MV-4-11,100 to 500 nM
same,IC50,MOLM-13,100 to 500 nM
same,IC50,K-562,> 500 nM
"C=CC(=O)N(C)CC(=O)NCCc1cccc(Nc2nc(N(C)C(C)C)c(C)nc2C(N)=O)c1 [Compound 309, 5-[isopropyl(methyl)amino]-6-methyl-3-[3-[2-[[2-[methyl(prop-2-enoyl)amino]acetyl]amino]ethyl]anilino]pyrazine-2-carboxamide]",IC50,MV-4-11,1 to 10 nM
same,IC50,MOLM-13,100 to 500 nM
same,IC50,K-562,> 500 nM
"CCc1nc(C(N)=O)c(Nc2cccc(C[C@@H](C)NC(=O)CN(C)C(=O)/C=C/CN(C)C)c2)nc1C [Compound 311, 3-[3-[(2R)-2-[[2-[[(E)-4-(dimethylamino)but-2-enoyl]-methyl-amino]acetyl]amino]propyl]anilino]-6-ethyl-5-methyl-pyrazine-2-carboxamide]",IC50,MV-4-11,10 to 100 nM
same,IC50,MOLM-13,100 to 500 nM
same,IC50,K-562,> 500 nM
"CCc1nc(C(N)=O)c(Nc2cccc(C[C@H](C)NC(=O)CN(C)C(=O)/C=C/CN(C)C)c2)nc1C [Compound 312, 3-[3-[(2S)-2-[[2-[[(E)-4-(dimethylamino)but-2-enoyl]-methyl-amino]acetyl]amino]propyl]anilino]-6-ethyl-5-methyl-pyrazine-2-carboxamide]",IC50,MV-4-11,10 to 100 nM
same,IC50,MOLM-13,100 to 500 nM
same,IC50,K-562,> 500 nM
"CCc1nc(C(N)=O)c(Nc2cccc(CCNC(=O)[C@H](C)N(C)C(=O)/C=C/CN(C)C)n2)nc1C1CC1 [Compound 313, 5-cyclopropyl-3-[[6-[2-[[(2S)-2-[[(E)-4-(dimethylamino)but-2-enoyl]-methyl-amino]propanoyl]amino]ethyl]-2-pyridyl]amino]-6-ethyl-pyrazine-2-carboxamide]",IC50,MV-4-11,10 to 100 nM
same,IC50,MOLM-13,100 to 500 nM
same,IC50,K-562,> 500 nM
"CCc1nc(C(N)=O)c(Nc2cccc(C[C@@H](C)NC(=O)[C@H](C)N(C)C(=O)/C=C/CN(C)C)c2)nc1C [Compound 314, 3-[3-[(2R)-2-[[(2S)-2-[[(E)-4-(dimethylamino)but-2-enoyl]-methyl-amino]propanoyl]amino]propyl]anilino]-6-ethyl-5-methyl-pyrazine-2-carboxamide]",IC50,MV-4-11,10 to 100 nM
same,IC50,MOLM-13,100 to 500 nM
same,IC50,K-562,> 500 nM
"CCc1cc(C(N)=O)c(Nc2cccc(CCNC(=O)[C@H](C)N(C)C(=O)/C=C/CN(C)C)c2)nc1C1CC1 [Compound 316, 6-cyclopropyl-2-[3-[2-[[(2S)-2-[[(E)-4-(dimethylamino)but-2-enoyl]-methyl-amino]propanoyl]amino]ethyl]anilino]-5-ethyl-pyridine-3-carboxamide]",IC50,MV-4-11,10 to 100 nM
same,IC50,MOLM-13,100 to 500 nM
same,IC50,K-562,> 500 nM
"CCc1nc(C(N)=O)c(Nc2cccc(C[C@H](C)NC(=O)[C@H](C)N(C)C(=O)/C=C/CN(C)C)c2)nc1C [Compound 317, 3-[3-[(2S)-2-[[(2S)-2-[[(E)-4-(dimethylamino)but-2-enoyl]-methyl-amino]propanoyl]amino]propyl]anilino]-6-ethyl-5-methyl-pyrazine-2-carboxamide]",IC50,MV-4-11,1 to 10 nM
same,IC50,MOLM-13,10 to 100 nM
same,IC50,K-562,> 500 nM
"CCc1nc(C(N)=O)c(Nc2cccc(CCNC(=O)[C@H](C)N(C)C(=O)CCCN(C)C)c2)nc1N(C)C(C)C [Compound 318, 3-[3-[2-[[(2S)-2-[4-(dimethylamino)butanoyl-methyl-amino]propanoyl]amino]ethyl]anilino]-6-ethyl-5-[isopropyl(methyl)amino]pyrazine-2-carboxamide]",IC50,MV-4-11,1 to 10 nM
same,IC50,MOLM-13,10 to 100 nM
same,IC50,K-562,> 500 nM
"Cc1cc(C(N)=O)c(Nc2cccc(CCNC(=O)[C@H](C)N(C)C(=O)/C=C/CN(C)C)c2)nc1C1CC1 [Compound 319, 6-cyclopropyl-2-[3-[2-[[(2S)-2-[[(E)-4-(dimethylamino)but-2-enoyl]-methyl-amino]propanoyl]amino]ethyl]anilino]-5-methyl-pyridine-3-carboxamide]",IC50,MV-4-11,10 to 100 nM
same,IC50,MOLM-13,10 to 100 nM
same,IC50,K-562,> 500 nM
"CCc1cc(C(N)=O)c(Nc2cncc(CCNC(=O)[C@H](C)N(C)C(=O)/C=C/CN(C)C)c2)nc1C1CC1 [Compound 320, 6-cyclopropyl-2-[[5-[2-[[(2S)-2-[[(E)-4-(dimethylamino)but-2-enoyl]-methyl-amino]propanoyl]amino]ethyl]-3-pyridyl]amino]-5-ethyl-pyridine-3-carboxamide]",IC50,MV-4-11,10 to 100 nM
same,IC50,MOLM-13,100 to 500 nM
same,IC50,K-562,> 500 nM
"CCc1cc(C(N)=O)c(Nc2cccc(CCNC(=O)[C@H](C)N(C)C(=O)/C=C/CN(C)C)c2)nc1N(C)C [Compound 322, (S,E)-6-(dimethylamino)-2-((3-(2-(2-(4-(dimethylamino)-N-methylbut-2-enamido)propanamido)ethyl)phenyl)amino)-5-ethylnicotinamide]",IC50,MV-4-11,10 to 100 nM
same,IC50,MOLM-13,100 to 500 nM
same,IC50,K-562,> 500 nM
